Data from patent publication US20230313199A1, “TARGET FOR MODULATING BODY MASS” (Massachusetts Institute of Technology, priority 2020, published 2023).

How the values were obtained:
NTD of human MFSD7C = biological target: T1, NTD of human MFSD7C (Homo sapiens, UniProt Q9UPI3); assay: Isothermal titration calorimetry of NTD binding to heme
T1 construct: Plasmid harboring GST-His-tag-SUMO-NTD (amino acids 1-84); GST-His-tag-SUMO (N, cleaved yes); made in house; host or cells: Escherichia coli Lemo21(DE3)
T1 sequence (Q9UPI3 1-84): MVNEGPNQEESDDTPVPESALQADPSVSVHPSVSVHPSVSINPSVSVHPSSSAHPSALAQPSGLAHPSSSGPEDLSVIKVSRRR

4B8^FL cells [1] = assay: FPT intensity in 4B8 cells complemented with full length MFSD7C; type: cell-based, human; details: 40 μM heme 1 hour
Description: FIGS. 4A-4H show NTD of MFSD7C mediates heme effect on mitochondrial respiration. FIGS. 4A-4C show comparison of basal OCR (FIG. 4A), maximal OCR (FIG. 4B) and ECAR (FIG. 4C) of THP-1, 4B8, and 4B8^FL and 4B8^ΔN cells treated with vehicle or heme for 1 hour (n=18 separate experiments). […] Cells were incubated with FPT for 6 hrs, washed and reseeded in poly-lysine coated glass bottom dishes. After cells attached to the glass, medium containing 40 μM heme was added. Cells in the same field were imaged immediately and again 1 hour later. Relative FPT fluorescent intensities, normalized to THP-1, from three experiments are shown. (n=3 independent experiments). […] THP-1 cells were co-cultured with 4B8, 4B8^FL, or 4B8^ΔN in FPT solution for 6 hrs, washed and reseeded in poly-lysine coated glass bottom dishes. […] THP-1, 4B8, 4B8^FL and 4B8^ΔN cells were treated with vehicle or heme for 1 hour and MMP was measured by using JC-10 Mitochondrial Membrane Potential Assay Kit followed by flow cytometry. […] Shown are representative Western blotting data (FIG. 4G) and quantification of band intensities from n=3 independent experiments (FIG. 4H). P-values were calculated using two-way ANOVA (*p<0.05, **p<0.01, ***p<0.005). […]
In the second approach, we used fluorescent polymeric thermometer (FPT), which we synthesized in-house (see above). […] Then the fluorescence intensities were determined by a flow cytometer.

4B8^FL cells [2] = assay: OCR and ECAR (Seahorse) in 4B8 cells complemented with full length MFSD7C; type: cell-based, human; details: heme 1 hour
Description: FIGS. 4A-4H show NTD of MFSD7C mediates heme effect on mitochondrial respiration. FIGS. 4A-4C show comparison of basal OCR (FIG. 4A), maximal OCR (FIG. 4B) and ECAR (FIG. 4C) of THP-1, 4B8, and 4B8^FL and 4B8^ΔN cells treated with vehicle or heme for 1 hour (n=18 separate experiments). […] Cells were incubated with FPT for 6 hrs, washed and reseeded in poly-lysine coated glass bottom dishes. After cells attached to the glass, medium containing 40 μM heme was added. Cells in the same field were imaged immediately and again 1 hour later. Relative FPT fluorescent intensities, normalized to THP-1, from three experiments are shown. (n=3 independent experiments). […] THP-1, 4B8, 4B8^FL and 4B8^ΔN cells were treated with vehicle or heme for 1 hour and MMP was measured by using JC-10 Mitochondrial Membrane Potential Assay Kit followed by flow cytometry. […] Shown are representative Western blotting data (FIG. 4G) and quantification of band intensities from n=3 independent experiments (FIG. 4H). P-values were calculated using two-way ANOVA (*p<0.05, **p<0.01, ***p<0.005). […]
Measurements of OCR, ECAR, and MMP. Oxygen consumption rate (OCR) and extracellular acidification rate (ECAR) were measured using XF96e Seahorse Extracellular Flux Analyzer per manufacturer's protocol. […]

MCF7 cells = assay: Oxygen consumption rate, parental MCF7 cells; type: cell-based, human; details: 40 μM heme for 1 hour
THP-1 cells = assay: Oxygen consumption rate (Seahorse XF96e), parental THP-1 cells; type: cell-based, human; details: 40 μM heme for one hour vs vehicle
Description: Measurements of OCR, ECAR, and MMP. Oxygen consumption rate (OCR) and extracellular acidification rate (ECAR) were measured using XF96e Seahorse Extracellular Flux Analyzer per manufacturer's protocol. To increase adherence of suspension cells, Seahorse plates were coated with Corning® Cell TAK (Catalog No. 354240). THP-1 and 7CKO cells were then attached to the plate according to the manufacturer's instructions. Cells were incubated in complete RPMI media with or without 40 μM heme. Changes in oxygen consumption were measured following treatment with oligomycin (5 μM), FCCP (2 μM), and rotenone (1 μM) plus antimycin A (1 μM). For BMDM, 5×10^5 cells/well were plated in 100 μL of BMDM media, 24 hours before the start of the assay. For OCR measurements, BMDM media was replaced with 180 μL of Seahorse XF Base Medium supplemented with 10 mM D-glucose, 1 mM sodium pyruvate, and 1 mM L-glutamine. For ECAR measurements, BMDM media was replaced with 180 μL of Seahorse XF RPMI Medium pH 7.4 supplemented with 2 mM L-glutamine. The Glycolysis Stress Test was performed using D-glucose, rotenone/antimycin A, and 2-deoxy-D-glucose at 10 mM, 0.5 μM, and 50 mM final concentration, respectively.

For `C=CC1=C(C)c2cc3[n-]c(cc4[n-]c(cc5nc(cc1n2)C(C)=C5C=C)c(C)c4CCC(=O)O)c(CCC(=O)O)c3C.[Fe+2]` [heme], the “heme molecules bound by the NTD” value (NTD of human MFSD7C; ITC) was “three”, the “heme molecules the NTD is capable of binding” value (NTD of human MFSD7C; overall conclusion of Example 2) was 2-3 and the FPT intensity (4B8^FL cells [1]) was “increased”. The ECAR (4B8^FL cells [2]) was “increased”, the OCR (4B8^FL cells [2]) was “increased” and the OCR (MCF7 cells) was “significantly stimulated”. For the same molecule, the “basal OCR” value (THP-1 cells) was “increased” and the “maximal OCR” value (THP-1 cells) was “increased”.
